The source of these data is patent US9187462B2, “Substituted quinazolines as serine/threonine kinase inhibitors” (Array BioPharma Inc., priority 2011, dated 2015).

Like-named read-outs stand apart in the source and are kept apart here.

The target in the experiment is human ERK-2 (Mitogen Activated Kinase 1) (Homo sapiens (Human), UniProt P28482). Nature of the experiment: ERK-2 Enzymatic Assay. Type of experiment: biochemical. To be noted: 5 nM ERK-2 enzyme, 25 μM ATP, Omnia peptide S/T17, single assay or mean of multiple assays. The procedure: Compounds were tested in an enzymatic assay using human ERK-2 (Mitogen Activated Kinase 1), recombinantly expressed as an N-terminal 6-His fusion protein in E. coli and corresponding to aa 8-360. The substrate used was the fluorescent Omnia peptide S/T17 (Invitrogen of Carlsbad, Calif.; Cat. KNZ1171C). Test compounds were diluted in DMSO in 3-fold serial dilutions at 100× final concentrations. […] The assay was run at ambient temperature in a white 384-well polypropylene plate (Nunc, Inc of Naperville, Ill.; Cat. 267462) collecting data every 50 seconds for approximately 30 minutes on an Envision plate reader (PerkinElmer, Inc. of Waltham, Mass.); Excitation 340 nm/Emission 495 nm. The data collected from each well was fit to a straight line and the resulting rates were used to calculate percent of control. Percent of control was plotted against compound concentration and IC50 values were determined using a four-parameter fit. Representative data is in TABLE I and TABLE II. The reported IC50 may be from a single assay or the mean of multiple assays.

[1] abbreviates: read-out: IC50 (ERK-2 Enzymatic Assay), TABLE II.
Setting [2] is: read-out: IC50 (ERK-2 Enzymatic Assay), TABLE I.

human ERK-2 (Mitogen Activated Kinase 1), sequence (P28482 8-360): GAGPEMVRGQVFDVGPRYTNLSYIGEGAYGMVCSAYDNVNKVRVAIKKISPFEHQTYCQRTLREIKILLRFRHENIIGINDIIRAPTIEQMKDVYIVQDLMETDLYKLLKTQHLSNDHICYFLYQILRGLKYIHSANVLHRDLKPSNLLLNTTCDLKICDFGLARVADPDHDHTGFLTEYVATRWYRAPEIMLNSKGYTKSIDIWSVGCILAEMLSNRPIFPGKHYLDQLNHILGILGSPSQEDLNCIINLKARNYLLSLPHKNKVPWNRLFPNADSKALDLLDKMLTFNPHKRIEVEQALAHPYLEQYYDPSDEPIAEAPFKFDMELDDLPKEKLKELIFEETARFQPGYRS

For the molecule `COc1ccc([C@H](NC(=O)c2cc(F)c3cnc(NC(C)C(F)(F)F)nc3c2)c2cnn(C)c2)cc1F` (single isomer, unassigned) [II-1], the concentration for half-maximal inhibition (IC50) under setting [1] was 6.2 nM.
On the same count and under the same terms, to `COc1ccc([C@H](NC(=O)c2cc(F)c3cnc(NC(C)C(F)(F)F)nc3c2)c2cnn(C)c2)cc1F` (single isomer, unassigned) [II-2] belongs 13.6 nM.
With `CC(C)Nc1ncc2ccc(C(=O)N[C@H](c3ccc(C(F)(F)F)c(F)c3)[C@@H]3CCCN3)cc2n1` (stereo in doubt) [I-5, 2-isopropylamino-quinazoline-7-carboxylic acid [(S)-(3-fluoro-4-trifluoromethyl-phenyl)-(R)-pyrrolidin-2-yl-methyl]-amide], under setting [2], the half-maximal inhibitory concentration (IC50) was 2.3 nM.
Turning to `O=C(N[C@H](c1ccc(C(F)(F)F)c(F)c1)[C@@H]1CCCN1)c1ccc2cnc(NC3CCOCC3)nc2c1` (stereo in doubt) [I-7, 2-(tetrahydropyran-4-ylamino)-quinazoline-7-carboxylic acid [(S)-(3-fluoro-4-trifluoromethyl-phenyl)-(R)-pyrrolidin-2-yl-methyl]-amide], the IC50 under setting [2] was found to be 1.8 nM.
Same read-out and setting: then `O=C(N[C@H](c1ccc(Cl)c(F)c1)[C@@H]1CCCN1)c1ccc2cnc(NC3CCOCC3)nc2c1` (stereo in doubt) [I-23, 2-(tetrahydropyran-4-ylamino)-quinazoline-7-carboxylic acid [(S)-(4-chloro-3-fluoro-phenyl)-(R)-pyrrolidin-2-yl-methyl]-amide], with 2.3 nM.
The same measure, in the same setting: to `COc1ccc([C@@H](NC(=O)c2ccc3cnc(NC4CCOCC4)nc3c2)[C@@H]2CCCN2)cc1F` (stereo in doubt) [I-24, 2-(tetrahydropyran-4-ylamino)-quinazoline-7-carboxylic acid [(S)-(3-fluoro-4-methoxy-phenyl)-(R)-pyrrolidin-2-yl-methyl]-amide] belongs 8.2 nM; to `COc1ccc([C@@H](NC(=O)c2cc(F)c3cnc(NC4CCOCC4)nc3c2)[C@@H]2CCCN2)cc1F` (stereo in doubt) [I-25, 5-fluoro-2-(tetrahydropyran-4-ylamino)-quinazoline-7-carboxylic acid [(S)-(3-fluoro-4-methoxy-phenyl)-(R)-pyrrolidin-2-yl-methyl]-amide], 9 nM; to `C[C@@H](CO)Nc1ncc2ccc(C(=O)NC(c3ccc(Cl)c(F)c3)c3ccn(C)n3)cc2n1` (stereo partly drawn) [I-6, N-((4-chloro-3-fluorophenyl)(1-methyl-1H-pyrazol-3-yl)methyl)-2-((S)-1-hydroxypropan-2-ylamino)quinazoline-7-carboxamide], 5 nM.
The same measure, in the same setting: to `CCn1ccc([C@@H](NC(=O)c2ccc3cnc(NC4CCOCC4)nc3c2)c2ccc(Cl)c(F)c2)n1` [I-19, 2-(tetrahydropyran-4-ylamino)-quinazoline-7-carboxylic acid [(S)-(4-chloro-3-fluoro-phenyl)-(1-ethyl-1H-pyrazol-3-yl)-methyl]-amide] belongs 2.4 nM.
